Measurements: US5744468A (Lin; Tong-Ho, priority 1996, dated 1998)
Where two headings read alike, the source gives them in different places.

Assays:
[1] = test system: intraocular pressure (IOP) in rabbits; settings: 50 μl
Protocol: New Zealand albino rabbits of either sex were used in the study. A 20% hypertonic saline solution was infused at the speed of 1 ml per min for 10 minutes through the marginal ear vein with an infusion pump.
Then the IOP of both eyes were measured with a Tono-Pen XL Tonometer (Mentor, Norwell, Mass.) at 30 minute and 10 minute intervals before the experiment. At the time of commencement, as well as at 10, 20, 40, 60, and 80 rain intervals measurements were taken, Then measurements were repeated at every 30 minute intervals.

[2] = test system: dopamine D3 receptor mRNA; settings: daily doses clozapine 30 mg/kg, sulpiride 100 mg/kg; male Wistar rats; long term; cited from earlier work

## CCN1CCCC1CNC(=O)c1cc(S(N)(=O)=O)ccc1OC (stereo not drawn) [Sulpiride]
[1]; 0.5% drop solution, instilled in eye
  effect on IOP recovery: didn't show a significant ability in decreasing lOP
[1]; 20% drop solution, listed as sulpiride
  effect on IOP recovery: able to decrease the intraocular pressure (IOP)
[2]
  mRNA levels in the dopamine D3 receptor: large increase
